Source: BindingDB's records for patent US9670214 (Dana-Farber Cancer Institute, 2017)

Columns and labels:
[1] = molecular target: Non-specific protein-tyrosine kinase [T818I] (Homo sapiens, UniProt A9UEZ6, T818I); assay: Kinase Assay; conditions: pH 7.5
Excerpt: (§1) Recombinant abl was expressed in Sf9 insect cells and purified as described above. Bcr-abl immune complexes were obtained with Ab-3 anti-abl monoclonal antibody (Oncogene Science) from Ba/F3.p210 lysates as previously described. […] (Calbiochem buffer and protocol). The reaction was stopped by addition of Laemmli buffer and the proteins were resolved by SDS-PAGE in a 4-20% gel. The phosphoproteins were visualized by autoradiography and the autophosphorylation quantitated using a phosphoimager (STORM, Molecular Devices).

[2] = molecular target: Non-specific protein-tyrosine kinase (Homo sapiens, UniProt A9UEZ6); assay: Kinase Assay; conditions: pH 7.5
Excerpt: as §1

Chain of Non-specific protein-tyrosine kinase [T818I] (A9UEZ6 as listed by the source T818I): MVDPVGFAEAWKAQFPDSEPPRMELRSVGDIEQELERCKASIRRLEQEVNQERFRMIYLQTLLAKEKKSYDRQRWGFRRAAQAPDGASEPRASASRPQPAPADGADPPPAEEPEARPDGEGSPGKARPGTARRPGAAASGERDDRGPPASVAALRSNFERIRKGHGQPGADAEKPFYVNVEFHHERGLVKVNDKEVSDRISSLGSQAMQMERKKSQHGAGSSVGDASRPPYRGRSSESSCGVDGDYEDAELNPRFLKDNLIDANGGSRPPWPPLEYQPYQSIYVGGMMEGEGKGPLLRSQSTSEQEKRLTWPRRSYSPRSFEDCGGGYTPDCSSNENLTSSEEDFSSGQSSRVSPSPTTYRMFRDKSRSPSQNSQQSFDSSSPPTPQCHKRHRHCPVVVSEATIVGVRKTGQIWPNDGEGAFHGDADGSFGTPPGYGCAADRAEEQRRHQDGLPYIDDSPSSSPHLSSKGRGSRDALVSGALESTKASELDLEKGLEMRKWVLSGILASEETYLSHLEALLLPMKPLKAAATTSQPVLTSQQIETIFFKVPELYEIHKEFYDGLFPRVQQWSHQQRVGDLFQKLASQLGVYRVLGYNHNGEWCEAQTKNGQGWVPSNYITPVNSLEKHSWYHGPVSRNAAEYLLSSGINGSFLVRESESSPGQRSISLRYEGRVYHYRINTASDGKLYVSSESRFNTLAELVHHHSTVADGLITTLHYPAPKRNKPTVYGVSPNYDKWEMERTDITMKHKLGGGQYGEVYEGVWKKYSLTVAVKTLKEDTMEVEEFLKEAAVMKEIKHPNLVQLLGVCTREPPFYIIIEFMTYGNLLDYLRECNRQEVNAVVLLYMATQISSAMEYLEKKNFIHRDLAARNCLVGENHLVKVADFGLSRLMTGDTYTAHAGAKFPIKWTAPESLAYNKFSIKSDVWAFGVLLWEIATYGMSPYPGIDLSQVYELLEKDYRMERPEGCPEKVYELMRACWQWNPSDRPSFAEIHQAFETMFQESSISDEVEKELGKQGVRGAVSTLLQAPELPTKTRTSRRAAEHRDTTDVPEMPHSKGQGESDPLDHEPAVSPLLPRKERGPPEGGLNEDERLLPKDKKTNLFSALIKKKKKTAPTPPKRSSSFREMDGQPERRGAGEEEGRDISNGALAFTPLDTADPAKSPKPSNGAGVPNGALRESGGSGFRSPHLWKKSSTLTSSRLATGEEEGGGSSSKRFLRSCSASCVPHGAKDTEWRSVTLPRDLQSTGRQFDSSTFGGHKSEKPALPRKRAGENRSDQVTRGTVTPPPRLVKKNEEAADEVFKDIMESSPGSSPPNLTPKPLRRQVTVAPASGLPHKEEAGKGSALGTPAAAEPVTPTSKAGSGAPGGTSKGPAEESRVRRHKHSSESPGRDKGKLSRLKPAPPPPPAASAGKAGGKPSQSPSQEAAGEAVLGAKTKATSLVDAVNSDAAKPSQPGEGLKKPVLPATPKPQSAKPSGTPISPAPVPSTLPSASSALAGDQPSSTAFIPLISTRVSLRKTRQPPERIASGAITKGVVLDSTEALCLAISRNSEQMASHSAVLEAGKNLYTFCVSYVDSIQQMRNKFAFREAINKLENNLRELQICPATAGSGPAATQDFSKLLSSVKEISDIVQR
Chain of Non-specific protein-tyrosine kinase (A9UEZ6 whole entry): as the sequence (A9UEZ6 as listed by the source T818I) above, with I818T counted along it

Compound: FC(F)(F)Oc1ccc(Nc2ncnc3c2cnn3Cc2cccnc2)cc1 [US9670214, TABLE 10.30]
- IC50 [1]: 600 nM
- IC50 [2]: 30 nM
